Data from patent US20240327388A1, “QUINOLINAMINE COMPOUND, PREPARATION METHOD THEREFOR AND APPLICATION THEREOF IN PHARMACEUTICALS” (JIANGSU HENGRUI PHARMACEUTICALS CO., LTD., priority 2021, published 2024).

System: miR-124
Assay: Up-regulation of miR-124 in CD3/CD28 antibody-activated T cells (SYBR green quantitative PCR)
Assay type: cell-based
Conditions: T-cell, 72 h; activated human T cells, 1 μM compound, 3 days, relative to DMSO, U6 internal reference
Method: The effect of the compound on miR-124 expression levels was detected in CD3/CD28 antibody-activated T cells. After the activated T cells were treated with the compound, the total cellular RNA was extracted, the cDNA obtained from reverse transcription was used as a template, and quantification was performed by an SYBR green fluorescence quantitative PCR method using a specific miR-124 primer.
Isolation of T cells: Purchased human peripheral blood mononuclear cells (PBMCs) were counted, centrifuged, and washed once with a separation buffer (PBS, pH 7.4, containing 0.5% BSA and 2 mM EDTA), and the supernatant was discarded. The components were added in an amount of 40 μL of a buffer and 10 μL of pan T Cell Biotin-Antibody Cocktail per 1×10^7 cells, and the pellet was resuspended. The resulting suspension was mixed and incubated in a refrigerator at 4° C. for 5 min. After the incubation was completed, the components were added in an amount of 30 μL of a buffer and 20 μL of Pan T Cell MicroBeads Cocktail per 1×10^7 cells, and the resulting suspension was mixed and incubated in a refrigerator at 4° C. for 10 min. The separation column (LS column) was rinsed with 3 mL of a cell separation buffer in advance, loaded with the above cell suspension, and then repeatedly washed 3 times with 1 mL of the cell separation buffer. The effluent cell fluid was collected in a 15 mL centrifuge tube, thus giving the enriched T cells. The cells were counted and added at a density of 1×10^6 cells/mL to an RPMI1640 medium (complete medium) containing 10% FBS and 40) U/mL IL-2, and the resulting mixture was kept on ice for later use.
Activation of T cells: The corresponding Dynabead Human T-Activator CD3/CD28 for T Cell Expansion and Activation were added to a 1.5 mL centrifuge tube in an amount of 25 μL of the activated magnetic beads per 1×10^6 cells, which should be shaken on a shaker for about 30 s before aspiration. In the centrifuge tube, at a volume ratio of greater than 1:1, the activated magnetic beads were washed 3 times with a medium, and all the washing liquid was removed after the last washing. A complete medium with a volume equal to the starting volume was added to resuspend the activated magnetic beads. The washed activated magnetic beads were added to the cell resuspension, and the resulting mixture was well mixed. The cells were added to a six-well plate at 3 mL/well and incubated in a cell incubator at 37° C. with 5% CO2 for 2 days.
Compound treatment: A 20 mM compound stock solution was diluted to 200 μM with DMSO, and then diluted 4-fold to 50 μM (50)×) with a complete medium. The resulting mixture was well mixed for later use. 4-fold diluted DMSO (25% DMSO) was added to negative control wells. T cells were activated for two days and pipetted uniformly. The 1.5 mL centrifuge tube was mounted on a magnetic rack, and the activated magnetic beads were removed. The cell suspension was collected, and the cells were counted and then centrifuged at 300×g for 10 min to discard the supernatant. The cells were then resuspended to 1.02×10^6 cells/mL, and 980 μL of the cell suspension and 20 μL of the 50× compound were added to each 24-well plate, with the final concentration of the compound being 1 μM. The cells were placed in a cell incubator at 37° C. with 5% CO2 for another 3 days.
RNA extraction: T cells were collected by centrifugation at 1500 rpm for 3 min, washed once with PBS, and centrifuged again to discard the supernatant. The total cellular RNA was extracted using a microRNA extraction kit according to the package insert. 700 μL of a Trizol cell lysis buffer was added to the cell pellet, and the resulting mixture was pipetted uniformly and left at room temperature for 5 min. 140 μL of chloroform was added, and the resulting mixture was well mixed with shaking and left to stand at room temperature for 3 min. The chloroform-cell lysis buffer mixture was centrifuged at 12000×g and 4° C. for 15 min. […]

| Compound | fold induction at 1 µM |
| --- | --- |
| Clc1cccc2ccc(Nc3ccc4c(c3)CCO4)nc12 [Compound 3, 8-Chloro-N-(2,3-dihydrobenzofuran-5-yl)quinolin-2-amine] | 5.2 |
| Clc1cccc2ccc(Nc3ccc4c(c3)CCC4)nc12 [Compound 4, 8-Chloro-N-(2,3-dihydro-1H-inden-5-yl)quinolin-2-amine] | 5.4 |
| CC(=O)N1CCc2cc(Nc3ccc4cccc(Cl)c4n3)ccc21 [Compound 5, 1-(5-((8-Chloroquinolin-2-yl)amino)indolin-1-yl)ethan-1-one] | 1.4 |
| Clc1cccc2ccc(Nc3ccc4c(c3)OCCO4)nc12 [Compound 6, 8-Chloro-N-(2,3-dihydrobenzo[b][1,4]dioxin-6-yl)quinolin-2-amine] | 2.7 |
| Clc1cccc2ccc(Nc3ccc4c(c3)CCCC4)nc12 [Compound 7, 8-Chloro-N-(5,6,7,8-tetrahydronaphthalen-2-yl)quinolin-2-amine] | 5.2 |
| FC1(F)Oc2ccc(Nc3ccc4cccc(Cl)c4n3)cc2OC1(F)F [Compound 8, 8-Chloro-N-(2,2,3,3-tetrafluoro-2,3-dihydrobenzo[b][1,4]dioxin-6-yl)quinolin-2-amine] | 5.4 |
| Clc1cccc2ccc(Nc3cnc4c(c3)OCO4)nc12 [Compound 9, N-(8-Chloroquinolin-2-yl)-[1,3]dioxolo[4,5-b]pyridin-6-amine] | 2.4 |
| Clc1cccc2ccc(Nc3ccc4c(c3)OCO4)nc12 [Compound 10, N-(Benzo[d][1,3]dioxol-5-yl)-8-chloroquinolin-2-amine] | 2.1 |
| [2H]C1([2H])Oc2ccc(Nc3ccc4cccc(Cl)c4n3)cc2O1 [Compound 11, N-(Benzo[d][1,3]dioxol-5-yl-2,2-d2)-8-chloroquinolin-2-amine] | 2.4 |
| CC1(C)Oc2ccc(Nc3ccc4cccc(Cl)c4n3)cc2O1 [Compound 12, 8-Chloro-N-(2,2-dimethylbenzo[d][1,3]dioxol-5-yl)quinolin-2-amine] | 1.8 |
| CC1(C)Cc2cc(Nc3ccc4cccc(Cl)c4n3)ccc2O1 [Compound 13, 8-Chloro-N-(2,2-dimethyl-2,3-dihydrobenzofuran-5-yl)quinolin-2-amine] | 2.8 |
| FC1(F)Oc2ccc(Nc3ccc4c5c(cc(Cl)c4n3)CCC5)cc2O1 [Compound 14, 5-Chloro-N-(2,2-difluorobenzo[d][1,3]dioxol-5-yl)-8,9-dihydro-7H-cyclopenta[f]quinolin-3-amine] | 1.5 |
| Cc1ccc2ccc(Nc3ccc4c(c3)OC(F)(F)O4)nc2c1Cl [Compound 15, 8-Chloro-N-(2,2-difluorobenzo[d][1,3]dioxol-5-yl)-7-methylquinolin-2-amine] | 5.7 |
| COc1ccc2ccc(Nc3ccc4c(c3)OC(F)(F)O4)nc2c1Cl [Compound 16, 8-Chloro-N-(2,2-difluorobenzo[d][1,3]dioxol-5-yl)-7-methoxyquinolin-2-amine] | 3.9 |
| FC1(F)Oc2ccc(Nc3ccc4ccc(Cl)c(Cl)c4n3)cc2O1 [Compound 17, 7,8-Dichloro-N-(2,2-difluorobenzo[d][1,3]dioxol-5-yl)quinolin-2-amine] | 5.9 |
| Cc1cc(Cl)c2nc(Nc3ccc4c(c3)OC(F)(F)O4)ccc2c1 [Compound 18, 8-Chloro-N-(2,2-difluorobenzo[d][1,3]dioxol-5-yl)-6-methylquinolin-2-amine] | 2.7 |
| FC1(F)Oc2ccc(Nc3ccc4cc(Cl)cc(Cl)c4n3)cc2O1 [Compound 20, 6,8-Dichloro-N-(2,2-difluorobenzo[d][1,3]dioxol-5-yl)quinolin-2-amine] | 5 |
| O=C(O)[C@H]1O[C@@H](N(c2ccc3c(c2)OCO3)c2ccc3cccc(Cl)c3n2)[C@H](O)[C@@H](O)[C@@H]1O [Compound 21, (2S,3S,4S,5R,6R)-6-(Benzo[d][1,3]dioxol-5-yl(8-chloroquinolin-2-yl)amino)-3,4,5-trihydroxytetrahydro-2H-pyran-2-carboxylic acid] | 1.9 |
| O=C(O)[C@H]1O[C@@H](N(c2ccc3c(c2)OCCO3)c2ccc3cccc(Cl)c3n2)[C@H](O)[C@@H](O)[C@@H]1O [Compound 22, (2S,3S,4S,5R,6R)-6-((8-Chloroquinolin-2-yl)(2,3-dihydrobenzo[b][1,4]dioxin-6-yl)amino)-3,4,5-trihydroxytetrahydro-2H-pyran-2-carboxylic acid] | 1.7 |
| Cc1ccc(Cl)c2nc(Nc3ccc4c(c3)OC(F)(F)O4)ccc12 [Compound 23, 8-Chloro-N-(2,2-difluorobenzo[d][1,3]dioxol-5-yl)-5-methylquinolin-2-amine] | 2.3 |
| COc1ccc(Cl)c2nc(Nc3ccc4c(c3)OC(F)(F)O4)ccc12 [Compound 24, 8-Chloro-N-(2,2-difluorobenzo[d][1,3]dioxol-5-yl)-5-methoxyquinolin-2-amine] | 3 |
| FC1(F)Oc2ccc(Nc3ccc4c(Cl)ccc(Cl)c4n3)cc2O1 [Compound 25, 5,8-Dichloro-N-(2,2-difluorobenzo[d][1,3]dioxol-5-yl)quinolin-2-amine] | 6.7 |
| N#Cc1cc(Cl)c2nc(Nc3ccc4c(c3)OC(F)(F)O4)ccc2c1 [Compound 26, 8-Chloro-2-((2,2-difluorobenzo[d][1,3]dioxol-5-yl)amino)quinoline-6-carbonitrile] | 2.4 |
